| melting point | Structure (SMILES) |
| --- | --- |
| 135.5 °C | Cc1nc(-c2ccc(Cl)cc2)c(-c2ccc(Cl)cc2Cl)cc1CNC(=O)c1cc2ccccc2[nH]1 [Compound 3, N-{[-6-(4-chlorophenyl)-5-(2,4-dichlorophenyl)-2-methylpyridin-3-yl]methyl}-1H-indole-2-carboxamide] |
| 98 °C | Cc1nc(-c2ccc(Cl)cc2)c(-c2ccc(Cl)cc2Cl)cc1CNS(=O)(=O)c1ccc(C(F)(F)F)cc1 |

— patent publication US20080021070A1, “PYRIDINE DERIVATIVES, PREPARATION AND THERAPEUTIC APPLICATION THEREOF” (SANOFI-AVENTIS, priority 2004, published 2008)
